Assay results taken from patent US6646151B1 (dated 2003).

Compared with `CO/C=C(/C(=O)OC)c1ccccc1CO/N=C(C)/C(=N/OC)c1ccc(OCc2cccc(C(F)(F)F)c2)cc1`, `CCO/N=C(/C(C)=NOCc1ccccc1C(=NOC)C(=O)OC)c1ccc(Oc2ccc(Cl)cc2)cc1` is lower in melting point: 102 to 103 °C for the first, 90 to 93 °C for the second.

With `C#CCO/N=C(/C(C)=NOCc1ccccc1C(=COC)C(=O)OC)c1ccc(F)cc1` the melting point was 91 to 93 °C.
